Reference: PubChem BioAssay (NCI)
Where “and” joins values, the source holds several entries; their conditions need not be identical. Identical values can stand only once.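 Assay format: 96-well plates, 48-hour exposure. The concentration for 50% growth inhibition is given as GI50. TGI: total growth inhibition.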 Where a SMILES comes first, the peptide text is derived from it. [ ]: non-standard residue; d: D form. The star is where a group is joined. Phe(4-NO2) = N[CH](Cc1ccc([N+](=O)[O-])cc1)C(=O)O; Cbz = O=C(OCc1ccccc1)*

Columns and labels:
Test in all cases: inhibition of tumour cell growth, NCI panel, 48 h
786-0 renal = tested on: 786-0 renal
HCT-116 colon = tested on: HCT-116 colon
HOP-62 NSCLC = tested on: HOP-62 NSCLC
HOP-92 NSCLC = tested on: HOP-92 NSCLC
MOLT-4 leukemia = tested on: MOLT-4 leukemia
NCI-H460 lung = tested on: NCI-H460 lung
OVCAR-3 ovarian = tested on: OVCAR-3 ovarian
SF-295 CNS = tested on: SF-295 CNS
TK-10 renal = tested on: TK-10 renal
SN12C renal = tested on: SN12C renal
CAKI-1 renal = tested on: CAKI-1 renal
HS 578T breast = tested on: HS 578T breast
MDA-MB-231 breast = tested on: MDA-MB-231 breast
RPMI-8226 leukemia = tested on: RPMI-8226 leukemia
T-47D breast = tested on: T-47D breast

| Structure (SMILES) | TGI (786-0 renal) | TGI (HCT-116 colon) | TGI (HOP-62 NSCLC) | TGI (HOP-92 NSCLC) | TGI (MOLT-4 leukemia) | TGI (NCI-H460 lung) | TGI (OVCAR-3 ovarian) | TGI (SF-295 CNS) | TGI (TK-10 renal) | TGI (SN12C renal) | TGI (CAKI-1 renal) | TGI (HS 578T breast) | TGI (MDA-MB-231 breast) | TGI (RPMI-8226 leukemia) | TGI (T-47D breast) | GI50 (CAKI-1 renal) | GI50 (HCT-116 colon) | GI50 (SF-295 CNS) | GI50 (SN12C renal) | GI50 (TK-10 renal) |
| --- | --- | --- | --- | --- | --- | --- | --- | --- | --- | --- | --- | --- | --- | --- | --- | --- | --- | --- | --- | --- |
| c1ccc(Nc2nnc(-c3ccccc3Nc3ccccc3-c3nnc(Nc4ccccc4)s3)s2)cc1 | > 100 µM | > 100 µM | > 100 µM | > 100 µM | > 100 µM | > 100 µM | > 100 µM | > 100 µM | > 100 µM |  |  |  |  |  |  |  |  |  |  |  |
| CC[n+]1c(/C=C/c2cc(C(=O)OC)n3c2sc2ccccc23)sc2ccccc21 | 38.6 µM | 37.1 µM | 34.8 µM | 31.6 µM | 33.9 µM | 34.3 µM | 42.4 µM |  |  | 49.3 µM |  |  |  |  |  |  |  |  |  |  |
| O=C1/C(=C/c2ccc([N+](=O)[O-])cc2)Oc2cc(O)ccc21 | 70.6 µM | > 100 µM | > 100 µM |  | 44.4 µM | > 100 µM | 73.8 µM | > 100 µM | 82.5 µM | 87.1 µM | 58.7 µM | 47.9 µM | 73.9 µM | 65.8 µM | > 100 µM |  |  |  |  |  |
| O=C(O)C(Cc1ccc(O)cc1)N=Cc1nc(-c2ccccc2)oc1O (stereo unspecified) | > 100 µM | > 100 µM | > 100 µM | > 100 µM |  | > 100 µM | > 100 µM | > 100 µM | > 100 µM |  | > 100 µM |  |  | > 100 µM |  |  |  |  |  |  |
| O=C(O)c1cc(-c2ccc3cc(O)c(O)cc3c2)ccc1O | > 12.5 µM | > 12.5 µM | > 12.5 µM |  | > 12.5 µM | > 12.5 µM | > 12.5 µM | > 12.5 µM | > 12.5 µM | > 12.5 µM | > 12.5 µM | > 12.5 µM | > 12.5 µM |  | > 12.5 µM |  |  |  |  |  |
| COc1cc2c(c(OC)c1OC)[C@@H]1CCCCC[C@@H]1CCC2=O | > 100 µM | > 100 µM | > 100 µM | > 100 µM | > 64.7 µM | > 100 µM | > 100 µM | > 100 µM | > 100 µM | > 100 µM | > 100 µM |  |  | > 64.1 µM |  |  |  |  |  |  |
| COc1cc(C(C)c2cc3c(cc2OCCCCCOc2cc4c(cc2C(C)c2cc(OC)c(OC)c(OC)c2)OCO4)OCO3)cc(OC)c1OC (stereo unspecified) | > 100 µM | > 100 µM | > 100 µM |  | > 100 µM | > 100 µM | > 100 µM | > 100 µM |  | > 100 µM | > 100 µM |  |  | > 100 µM |  |  |  |  |  |  |
| COc1ccc(-n2c(C)nc3ccc(NC4OC(COC(C)=O)C(OC(C)=O)C(OC(C)=O)C4OC(C)=O)cc3c2=O)cc1 (stereo unspecified) | 65.3 µM | 46.5 µM | > 100 µM |  | 80.8 µM | > 100 µM | > 100 µM | > 100 µM | > 100 µM | > 100 µM | 57.3 µM | > 100 µM | > 100 µM | 61.2 µM | > 100 µM |  |  |  |  |  |
| O=C(O)CNc1ncc2c(n1)-c1ccccc1OC2 | > 100 µM | > 100 µM | > 100 µM | > 100 µM | > 100 µM | > 100 µM | > 100 µM | > 100 µM | > 100 µM | > 100 µM | > 100 µM | > 100 µM | > 100 µM | > 100 µM |  |  |  |  |  |  |
| CC(C)(C)c1cc(C(C)(C)C)c(SSc2c(C(C)(C)C)cc(C(C)(C)C)c(O)c2O)c(O)c1O | 19.2 µM | 23.2 µM |  | 31.9 µM | 10.4 µM | 13.2 µM |  |  |  | 25.3 µM | 23.7 µM | > 100 µM | 28 µM | 32.1 µM | 27.2 µM |  |  |  |  |  |
| CCOC(=O)CCC(NC(=O)OCc1ccccc1)C(=O)NC(CCC(=O)OCC)C(=O)NC(CCC(=O)OCC)C(=O)NC(CCC(=O)OCC)C(=O)NC(CCC(=O)OCC)C(=O)NC(Cc1ccc([N+](=O)[O-])cc1)C(=O)NC(CCC(=O)OCC)C(=O)NC(CCC(=O)OCC)C(=O)NC(CCC(=O)OCC)C(=O)NC(CCC(=O)OCC)C(=O)NC(CCC(=O)OCC)C(=O)OCC (stereo unspecified) (Cbz-E(OEt)E(OEt)E(OEt)E(OEt)E(OEt)[Phe(4-NO2)]E(OEt)E(OEt)E(OEt)E(OEt)E(OEt)-OEt; configuration not given here) | > 50 µM |  | > 50 µM |  | > 50 µM | > 50 µM | > 50 µM |  | > 50 µM | > 50 µM |  | > 50 µM | > 5 µM | > 50 µM | > 50 µM |  |  |  |  |  |
| COc1ccc(C(=O)c2[nH]c(Nc3cc(C)ccn3)c(C(=S)Nc3ccccc3)c2N)cc1 | 49.7 µM | 50.6 µM | 72.2 µM |  | > 100 µM | 31.5 µM | > 100 µM | 49.5 µM | 61.5 µM | 39.2 µM | > 100 µM |  | 44.5 µM | 37.3 µM | > 100 µM |  |  |  |  |  |
| CC(C)CC1C(=O)OC(C)(C)OC1=O | > 100 µM | > 100 µM | > 100 µM |  | > 100 µM | > 100 µM | > 100 µM | > 100 µM | > 100 µM | > 100 µM | > 100 µM | > 100 µM | > 100 µM | > 100 µM | > 100 µM |  |  |  |  |  |
| CC(=O)NC1=C(NCCO)C(=O)c2ccccc2C1=O | > 50 µM | > 50 µM | > 50 µM |  | > 50 µM | > 50 µM | > 50 µM | > 50 µM | > 50 µM | > 50 µM |  |  |  |  |  |  |  |  |  |  |
| COc1ccc(-n2c(C)nc3ccc(NC4OCC(OC(C)=O)C(OC(C)=O)C4OC(C)=O)cc3c2=O)cc1 (stereo unspecified) | > 100 µM | > 100 µM | > 100 µM |  | > 100 µM | > 100 µM | > 100 µM | > 100 µM | > 100 µM | > 100 µM | > 100 µM | > 100 µM | > 100 µM | > 100 µM | > 100 µM |  |  |  |  |  |
| COc1cc(CNc2ccc(C)cc2)cc(OC)c1OC | > 44.9 µM |  | > 100 µM | > 100 µM | > 100 µM | > 23.8 µM and 3.92 µM | 0.597 µM | 0.439 µM | > 100 µM | > 87.6 µM | > 100 µM |  |  | > 50.2 µM |  | 0.235 µM and 0.0641 µM | 0.333 µM and 0.816 µM | 0.155 µM and 0.333 µM | 0.585 µM and 3.71 µM | 4.28 µM |
| CC1(C)COC(c2cccc(C(=O)c3ccccc3)c2)=N1 | > 100 µM | > 100 µM | > 100 µM | > 100 µM | 75.9 µM | > 100 µM | > 100 µM | > 100 µM | > 100 µM | > 100 µM | > 100 µM |  | > 100 µM | > 100 µM | > 100 µM |  |  |  |  |  |
